Consider 25 compounds from patent publication US20160326142A1, “PYRAZOLE CARBOXAMIDE COMPOUNDS, COMPOSITIONS AND METHODS OF USE” (Genentech, Inc., priority 2012, published 2016).

SMILES strings stand for the structures.

This assay deals with T1, ITK (Homo sapiens, UniProt Q08881).
T1 construct: purchased Invitrogen PV3875
T1 sequence (Q08881 1-620): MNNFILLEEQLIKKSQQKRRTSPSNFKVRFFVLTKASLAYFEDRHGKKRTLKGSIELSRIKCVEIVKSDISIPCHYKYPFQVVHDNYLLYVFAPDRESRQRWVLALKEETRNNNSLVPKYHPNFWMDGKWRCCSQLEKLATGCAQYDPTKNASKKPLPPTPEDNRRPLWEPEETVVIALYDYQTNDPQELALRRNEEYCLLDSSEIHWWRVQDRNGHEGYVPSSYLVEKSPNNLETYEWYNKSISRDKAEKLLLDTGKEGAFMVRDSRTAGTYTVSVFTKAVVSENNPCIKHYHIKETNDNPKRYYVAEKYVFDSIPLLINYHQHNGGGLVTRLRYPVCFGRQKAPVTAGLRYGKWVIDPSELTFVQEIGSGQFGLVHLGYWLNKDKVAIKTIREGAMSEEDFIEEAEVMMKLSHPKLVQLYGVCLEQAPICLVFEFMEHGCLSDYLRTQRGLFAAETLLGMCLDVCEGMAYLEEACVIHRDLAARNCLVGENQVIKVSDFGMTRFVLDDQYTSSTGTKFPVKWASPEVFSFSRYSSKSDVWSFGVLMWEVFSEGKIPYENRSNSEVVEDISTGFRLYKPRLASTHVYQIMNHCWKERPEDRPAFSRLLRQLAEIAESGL
Kind of assay: ITK enzyme assay (Caliper or LCMS peptide phosphorylation). The class given is biochemical. To be noted: purified ITK (Invitrogen PV3875), 20 μM ATP, Ki by Morrison's quadratic equation. In a few lines:
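Purified human ITK peptide phosphorylation, quenched with EDTA (50 mM final) for Caliper LabChip separation or TCA (5% v/v final) for UPLC-MS/MS MRM quantification. Ki derived via Morrison tight-binding equation, corrected for competitive inhibition using ATP concentration relative to Km,app.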
On to `CC1(C)CCc2c(C(=O)Nc3cnn(C(c4ccccc4)C(C)(C)O)c3)n[nH]c2C1` (single isomer, unassigned) [Example 55b, N-(1-(2-hydroxy-2-methyl-1-phenylpropyl)-1H-pyrazol-4-yl)-6,6-dimethyl-4,5,6,7-tetrahydro-1H-indazole-3-carboxamide], for which the affinity, expressed as Ki, was 18 nM.

Take `CCC1(C)CCc2c(C(=O)Nc3cnn(Cc4ccccc4)c3)n[nH]c2C1` (single isomer, unassigned) [Example 56a, N-(1-benzyl-1H-pyrazol-4-yl)-6-ethyl-6-methyl-4,5,6,7-tetrahydro-1H-indazole-3-carboxamide]: the inhibition constant Ki (usually the dissociation constant of the complex between target and ligand, obtained from inhibition or displacement) was found to be 9 nM.

The compound `CCC1(C)CCc2c(C(=O)Nc3cnn(Cc4ccccc4)c3)n[nH]c2C1` (single isomer, unassigned) [Example 56b, N-(1-benzyl-1H-pyrazol-4-yl)-6-ethyl-6-methyl-4,5,6,7-tetrahydro-1H-indazole-3-carboxamide] gave a Ki of 13 nM.

`CC1(C)CCc2c(C(=O)Nc3cnn(C(CN4CCC4)c4ccccc4)c3)n[nH]c2C1` (single isomer, unassigned) [Example 57a, N-(1-(2-(azetidin-1-yl)-1-phenylethyl)-1H-pyrazol-4-yl)-6,6-dimethyl-4,5,6,7-tetrahydro-1H-indazole-3-carboxamide] showed an inhibition constant Ki of 2 nM.

In turn, `CC1(C)CCc2c(C(=O)Nc3cnn(C(CN4CCC4)c4ccccc4)c3)n[nH]c2C1` (single isomer, unassigned) [Example 57b, N-(1-(2-(azetidin-1-yl)-1-phenylethyl)-1H-pyrazol-4-yl)-6,6-dimethyl-4,5,6,7-tetrahydro-1H-indazole-3-carboxamide] had a Ki of 12 nM.

In the case of `CN(CCC(c1ccccc1)n1cc(NC(=O)c2n[nH]c3c2CCC(C)(C)C3)cn1)C1COC1` (single isomer, unassigned) [Example 58a, 6,6-dimethyl-N-(1-(3-(methyl(oxetan-3-yl)amino)-1-phenylpropyl)-1H-pyrazol-4-yl)-4,5,6,7-tetrahydro-1H-indazole-3-carboxamide], the inhibition constant (Ki) is 7 nM.

On to `CN(CCC(c1ccccc1)n1cc(NC(=O)c2n[nH]c3c2CCC(C)(C)C3)cn1)C1COC1` (single isomer, unassigned) [Example 58b, 6,6-dimethyl-N-(1-(3-(methyl(oxetan-3-yl)amino)-1-phenylpropyl)-1H-pyrazol-4-yl)-4,5,6,7-tetrahydro-1H-indazole-3-carboxamide], for which the inhibition constant (Ki) worked out at 0.6 nM.

Compound `CN(CC(c1ccccc1)n1cc(NC(=O)c2n[nH]c3c2CCC(C)(C)C3)cn1)S(C)(=O)=O` (single isomer, unassigned) [Example 61a, 6,6-dimethyl-N-(1-(2-(N-methylmethylsulfonamido)-1-phenylethyl)-1H-pyrazol-4-yl)-4,5,6,7-tetrahydro-1H-indazole-3-carboxamide] yielded a Ki of 5 nM.

In the case of `CN(CC(c1ccccc1)n1cc(NC(=O)c2n[nH]c3c2CCC(C)(C)C3)cn1)S(C)(=O)=O` (single isomer, unassigned) [Example 61b, 6,6-dimethyl-N-(1-(2-(N-methylmethylsulfonamido)-1-phenylethyl)-1H-pyrazol-4-yl)-4,5,6,7-tetrahydro-1H-indazole-3-carboxamide], the inhibition constant (Ki) amounted to 1 nM.

The compound `CC1(C)CCc2c(C(=O)Nc3cnn(C(CN4CCOCC4)c4ccccc4)c3)n[nH]c2C1` (single isomer, unassigned) [Example 62a, 6,6-dimethyl-N-(1-(2-morpholino-1-phenylethyl)-1H-pyrazol-4-yl)-4,5,6,7-tetrahydro-1H-indazole-3-carboxamide] registered an inhibition constant Ki of 3 nM.

Consider `CC1(C)CCc2c(C(=O)Nc3cnn(C(CN4CCOCC4)c4ccccc4)c3)n[nH]c2C1` (single isomer, unassigned) [Example 62b, 6,6-dimethyl-N-(1-(2-morpholino-1-phenylethyl)-1H-pyrazol-4-yl)-4,5,6,7-tetrahydro-1H-indazole-3-carboxamide], for which affinity was put at a Ki of 16 nM.

Turning to `CC1(C)CCc2c(C(=O)Nc3cnn(C(c4ccccc4)C4CCN(CCF)CC4)c3)n[nH]c2C1` (single isomer, unassigned) [Example 63a, N-(1-((1-(2-fluoroethyl)piperidin-4-yl)(phenyl)methyl)-1H-pyrazol-4-yl)-6,6-dimethyl-4,5,6,7-tetrahydro-1H-indazole-3-carboxamide], the Ki was 0.1 nM.

`CC1(C)CCc2c(C(=O)Nc3cnn(C(c4ccccc4)C4CCN(CCF)CC4)c3)n[nH]c2C1` (single isomer, unassigned) [Example 63b, N-(1-((1-(2-fluoroethyl)piperidin-4-yl)(phenyl)methyl)-1H-pyrazol-4-yl)-6,6-dimethyl-4,5,6,7-tetrahydro-1H-indazole-3-carboxamide] displayed a Ki of 1 nM.

Turning to `CC1(C)CCc2c(C(=O)Nc3cnn(C(c4ccccc4)[C@@H]4CNCCO4)c3)n[nH]c2C1` (single isomer, unassigned) [Example 66a], affinity was put at a Ki of 0.3 nM.

`CC1(C)CCc2c(C(=O)Nc3cnn(C(c4ccccc4)[C@@H]4CNCCO4)c3)n[nH]c2C1` (single isomer, unassigned) [Example 66b] came in with a Ki of 1 nM.

`CC1(C)CCc2c(C(=O)Nc3cnn(C(c4ccccc4)C4CCN(S(C)(=O)=O)CC4)c3)n[nH]c2C1` (single isomer, unassigned) [Example 67a, 6,6-dimethyl-N-(1-((1-(methylsulfonyl)piperidin-4-yl)(phenyl)methyl)-1H-pyrazol-4-yl)-4,5,6,7-tetrahydro-1H-indazole-3-carboxamide] gave a Ki of 0.2 nM.

With `CC1(C)CCc2c(C(=O)Nc3cnn(C(c4ccccc4)C4CCN(S(C)(=O)=O)CC4)c3)n[nH]c2C1` (single isomer, unassigned) [Example 67b, 6,6-dimethyl-N-(1-((1-(methylsulfonyl)piperidin-4-yl)(phenyl)methyl)-1H-pyrazol-4-yl)-4,5,6,7-tetrahydro-1H-indazole-3-carboxamide], affinity was put at a Ki of 3 nM.

In turn, `CN(C)CC(c1ccccc1)n1cc(NC(=O)c2n[nH]c3c2CC2CC2(C)C3)cn1` (single isomer, unassigned) [Example 68a, N-(1-(2-(dimethylamino)-1-phenylethyl)-1H-pyrazol-4-yl)-5a-methyl-1,4,4a,5,5a,6-hexahydrocyclopropa[f]indazole-3-carboxamide] came in with a Ki of 0.2 nM.

Turning to `CN(C)CC(c1ccccc1)n1cc(NC(=O)c2n[nH]c3c2CC2CC2(C)C3)cn1` (single isomer, unassigned) [Example 68b, N-(1-(2-(dimethylamino)-1-phenylethyl)-1H-pyrazol-4-yl)-5a-methyl-1,4,4a,5,5a,6-hexahydrocyclopropa[f]indazole-3-carboxamide], affinity was put at a Ki of 4 nM.

For `CC1(C)Cc2[nH]nc(C(=O)Nc3cnn(Cc4ccccc4)c3)c2CC1O` (single isomer, unassigned) [Example 70a, N-(1-benzyl-1H-pyrazol-4-yl)-5-hydroxy-6,6-dimethyl-4,5,6,7-tetrahydro-1H-indazole-3-carboxamide], the Ki stood at 11 nM.

`CC1(C)Cc2[nH]nc(C(=O)Nc3cnn(Cc4ccccc4)c3)c2CC1O` (single isomer, unassigned) [Example 70b, N-(1-benzyl-1H-pyrazol-4-yl)-5-hydroxy-6,6-dimethyl-4,5,6,7-tetrahydro-1H-indazole-3-carboxamide] registered an inhibition constant Ki of 7 nM.

As for `CC1(C)CCc2c(C(=O)Nc3cnn(C(CS(C)(=O)=O)c4cccnc4)c3)n[nH]c2C1` (single isomer, unassigned) [Example 73a, 6,6-dimethyl-N-(1-(2-(methylsulfonyl)-1-(pyridin-3-yl)ethyl)-1H-pyrazol-4-yl)-4,5,6,7-tetrahydro-1H-indazole-3-carboxamide], the inhibitory constant (Ki) came out at 0.7 nM.

`CC1(C)CCc2c(C(=O)Nc3cnn(C(CS(C)(=O)=O)c4cccnc4)c3)n[nH]c2C1` (single isomer, unassigned) [Example 73b, 6,6-dimethyl-N-(1-(2-(methylsulfonyl)-1-(pyridin-3-yl)ethyl)-1H-pyrazol-4-yl)-4,5,6,7-tetrahydro-1H-indazole-3-carboxamide] displayed an inhibition constant Ki of 7 nM.

`CC1(C)CCc2c(C(=O)Nc3cnn(C(c4cccnc4)C4CCS(=O)(=O)CC4)c3)n[nH]c2C1` (single isomer, unassigned) [Example 74a, N-(1-((1,1-dioxidotetrahydro-2H-thiopyran-4-yl)(pyridin-3-yl)methyl)-1H-pyrazol-4-yl)-6,6-dimethyl-4,5,6,7-tetrahydro-1H-indazole-3-carboxamide]: the affinity corresponds to a Ki of 0.2 nM.

`CC1(C)CCc2c(C(=O)Nc3cnn(C(c4cccnc4)C4CCS(=O)(=O)CC4)c3)n[nH]c2C1` (single isomer, unassigned) [Example 74b, N-(1-((1,1-dioxidotetrahydro-2H-thiopyran-4-yl)(pyridin-3-yl)methyl)-1H-pyrazol-4-yl)-6,6-dimethyl-4,5,6,7-tetrahydro-1H-indazole-3-carboxamide] returned an inhibitory constant (Ki) of 3 nM.
